The source of these data is patent publication US20240058450A1, “BCL-XL Inhibitory Compounds Having Low Cell Permeability and Antibody Drug Conjugates Including the Same” (AbbVie Inc., priority 2014, published 2024).

The target of one test is Bcl-xL (Homo sapiens, UniProt Q07817). Briefly: Time Resolved-Fluorescence Resonance Energy Transfer (TR-FRET) binding assay, competition with probe F-Bak. Conditions: for Ki: in the presence of 1% HS, read-out: Bcl-xL Binding Ki (nM, 1% HS); for pKi: without HS, read-out: Bcl-xL Binding Ki. In short, it runs like this: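 TR-FRET binding assay run at room temperature for 2 h after mixing compound with Bcl-xL protein, F-Bak probe and Tb-labelled antibody. Test compounds diluted from a 2× 50 μM stock. Ki values derived via Wang's equation from 520/495 nm emission under 340 nm excitation, in the absence of serum or with 1% HS.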
On the technique in general: In TR-FRET formats the signal depends on donor and acceptor labels being close together.

Test [1] relates to Molt-4 human acute lymphoblastic leukemia cells. Briefly: Molt-4 cell viability assay (CellTiter-Glo, 48 hours, 10% HS). Format: cell-based. The conditions noted are these: Homo sapiens, MOLT-4, 48 h, non-permeabilized cells. The gist of the method:
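Cells were seeded at 12,500 per well in medium with 10% human serum and exposed to a 3-fold compound dilution series from 10 μM to 0.0005 μM. After 48 h, viable cells were quantified by CellTiter-Glo luminescence. Each concentration was run in duplicate on at least 3 occasions.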

pKi: −log10 of the molar value. Like-named read-outs stand apart in the source and are kept apart here. Bounds are passed on as bounds.

Sequence of Bcl-xL (Q07817 whole entry): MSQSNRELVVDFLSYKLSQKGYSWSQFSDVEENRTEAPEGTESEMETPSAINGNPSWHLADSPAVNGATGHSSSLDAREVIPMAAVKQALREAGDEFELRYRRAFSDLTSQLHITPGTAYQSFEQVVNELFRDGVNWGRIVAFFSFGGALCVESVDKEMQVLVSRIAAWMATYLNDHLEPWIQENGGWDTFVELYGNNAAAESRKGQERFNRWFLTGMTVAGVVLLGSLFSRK

One may read the Ki as the dissociation constant of the complex between target and ligand, obtained from inhibition or displacement. A word on the pKi: it is the Ki on a negative log10 scale, so that one unit is a factor of ten. Broadly, the EC50 is the concentration at which the effect is half-maximal. Consider `Cc1c(-c2ccc(N3CCc4cccc(C(=O)Nc5nc6ccccc6s5)c4C3)nc2C(=O)O)cnn1CC12CC3(C)CC(C)(C1)CC(OCCN(CCS(=O)(=O)O)C1CNC1)(C3)C2` [Example 1.60, 3-{1-[(3-{2-[azetidin-3-yl(2-sulfoethyl)amino]ethoxy}-5,7-dimethyltricyclo[3.3.1.1^3,7]dec-1-yl)methyl]-5-methyl-1H-pyrazol-4-yl}-6-[8-(1,3-benzothiazol-2-ylcarbamoyl)-3,4-dihydroisoquinolin-2 (1H)-yl]pyridine-2-carboxylic acid], for which, at Bcl-xL, the Ki worked out at 0.049 nM and the negative-log Ki (pKi) is over 12.00. The compound also showed a concentration for a half-maximal effect (EC50) in test [1] of 425 nM.
The matching figures for `Cc1c(-c2ccc(N3CCc4cccc(C(=O)Nc5nc6ccccc6s5)c4C3)nc2C(=O)O)cnn1CC12CC3(C)CC(C)(C1)CC(OCCN(CCCN)CCS(=O)(=O)O)(C3)C2` [Example 1.61, 3-{1-[(3-{2-[(3-aminopropyl)(2-sulfoethyl)amino]ethoxy}-5,7-dimethyltricyclo[3.3.1.1^3,7]dec-1-yl)methyl]-5-methyl-1H-pyrazol-4-yl}-6-[8-(1,3-benzothiazol-2-ylcarbamoyl)-3,4-dihydroisoquinolin-2 (1H)-yl]pyridine-2-carboxylic acid]: 0.097 nM, over 12.00 and 255 nM.
For `Cc1c(-c2ccc(-c3ccc4c(c3)N(C(=O)Nc3nc5ccccc5s3)CCC4)nc2C(=O)O)cnn1CC12CC3(C)CC(C)(C1)CC(OCCNCCC(=O)O)(C3)C2` [Example 1.62, 6-[1-(1,3-benzothiazol-2-ylcarbamoyl)-1,2,3,4-tetrahydroquinolin-7-yl]-3-{1-[(3-{2-[(2-carboxyethyl)amino]ethoxy}-5,7-dimethyltricyclo[3.3.1.1^3,7]dec-1-yl)methyl]-5-methyl-1H-pyrazol-4-yl)pyridine-2-carboxylic acid] the same measures were 0.2 nM, over 12.00 and 153 nM.
The matching figures for `Cc1c(-c2ccc(N3CCc4cccc(C(=O)Nc5nc6ccccc6s5)c4C3)nc2C(=O)O)cnn1CC12CC3(C)CC(C)(C1)CC(OCCN(C)C(=O)[C@@H](N)CCCCN(C)C)(C3)C2` [Example 1.63, 6-[8-(1,3-benzothiazol-2-ylcarbamoyl)-3,4-dihydroisoquinolin-2 (1H)-yl]-3-{1-[(3-{2-[(N′,N′-dimethyl-L-lysyl)(methyl)amino]ethoxy}-5,7-dimethyltricyclo[3.3.1.1^3,7]dec-1-yl)methyl]-5-methyl-1H-pyrazol-4-yl}pyridine-2-carboxylic acid]: under 0.01 nM, over 11.00 and 2.22 nM.
Turning to `Cc1c(-c2ccc(-c3ccc4c(c3)N(C(=O)Nc3nc5ccccc5s3)CCC4)nc2C(=O)O)cnn1CC12CC3(C)CC(C)(C1)CC(OCCN(C)CCCN)(C3)C2` [Example 1.64, 3-{1-[(3-{2-[(3-aminopropyl)(methyl)amino]ethoxy}-5,7-dimethyltricyclo[3.3.1.1^3,7]dec-1-yl)methyl]-5-methyl-1H-pyrazol-4-yl)-6-[1-(1,3-benzothiazol-2-ylcarbamoyl)-1,2,3,4-tetrahydroquinolin-7-yl]pyridine-2-carboxylic acid], at Bcl-xL, the Ki is under 0.01 nM and the negative logarithm of the Ki (pKi) was over 11.00. This compound came in with an EC50 in test [1] of 5.25 nM.
The matching figures for `Cc1c(-c2ccc(-c3ccc4cccc(C(=O)Nc5nc6ccccc6s5)c4c3)nc2C(=O)O)cnn1CC12CC3(C)CC(C)(C1)CC(OCCNCCC(=O)O)(C3)C2` [Example 1.68, 6-[8-(1,3-benzothiazol-2-ylcarbamoyl)naphthalen-2-yl]-3-(1-[(3-{2-[(2-carboxyethyl)amino]ethoxy}-5,7-dimethyltricyclo[3.3.1.1^3,7]dec-1-yl)methyl]-5-methyl-1H-pyrazol-4-yl}pyridine-2-carboxylic acid]: 0.32 nM, over 11.00 and 346 nM.
The matching figures for `Cc1c(-c2ccc(-c3ccc4nccc(C(=O)Nc5nc6ccccc6s5)c4c3)nc2C(=O)O)cnn1CC12CC3(C)CC(C)(C1)CC(OCCNCCS(=O)(=O)O)(C3)C2` [Example 1.70, 6-[4-(1,3-benzothiazol-2-ylcarbamoyl)quinolin-6-yl]-3-{1-[(3,5-dimethyl-7-{2-[(2-sulfoethyl)amino]ethoxy}tricyclo[3.3.1.1^3,7]dec-1-yl)methyl]-5-methyl-1H-pyrazol-4-yl}pyridine-2-carboxylic acid]: 0.275 nM, over 11.00 and 193 nM.
For the compound `Cc1c(-c2ccc(-c3cnc4cccc(C(=O)Nc5nc6ccccc6s5)c4c3)nc2C(=O)O)cnn1CC12CC3(C)CC(C)(C1)CC(OCCNCCC(=O)O)(C3)C2` [Example 1.71, 6-[5-(1,3-benzothiazol-2-ylcarbamoyl)quinolin-3-yl]-3-{1-[(3-{2-[(2-carboxyethyl)amino]ethoxy}-5,7-dimethyltricyclo[3.3.1.1^3,7]dec-1-yl)methyl]-5-methyl-1H-pyrazol-4-yl}pyridine-2-carboxylic acid], at Bcl-xL, the inhibitory constant (Ki) was determined as 0.061 nM and the negative logarithm of the Ki (pKi) was over 11.00. This compound also yielded a half-maximal effective concentration (EC50) in test [1] of 677 nM.
The matching figures for `Cc1c(-c2ccc(N3CCc4cccc(C(=O)Nc5nc6ccccc6s5)c4C3)nc2C(=O)O)cnn1CC12CC3(C)CC(C)(C1)CC(OCCNCCCc1cn([C@@H]4O[C@H](C(=O)O)[C@@H](O)[C@H](O)[C@H]4O)nn1)(C3)C2` [Example 1.73, 8-(1,3-benzothiazol-2-ylcarbamoyl)-2-{6-carboxy-5-[1-({3-[2-({3-[1-(beta-D-glucopyranuronosyl)-1H-1,2,3-triazol-4-yl]propyl}amino)ethoxy]-5,7-dimethyltricyclo[3.3.1.1^3,7]dec-1-yl}methyl)-S-methyl-1H-pyrazol-4-yl]pyridin-2-yl}-1,2,3,4-tetrahydroisoquinoline]: 34 nM, 9.06 and 3500 nM.
For `Cc1c(-c2ccc(-c3cc4cccc(C(=O)Nc5nc6ccccc6s5)c4[nH]3)nc2C(=O)O)cnn1CC12CC3(C)CC(C)(C1)CC(OCCNCCS(=O)(=O)O)(C3)C2` [Example 1.74, 6-[7-(1,3-benzothiazol-2-ylcarbamoyl)-1H-indol-2-yl]-3-{1-[(3,5-dimethyl-7-{2-[(2-sulfoethyl)amino]ethoxy}tricyclo[3.3.1.1^3,7]dec-1-yl)methyl]-5-methyl-1H-pyrazol-4-yl}pyridine-2-carboxylic acid], at Bcl-xL, the Ki is 0.016 nM and the negative-log Ki (pKi) is over 11.00. In addition, in test [1], a half-maximal effect (EC50) was put at 5.7 nM.
For `CNCCCc1cc2c(c(C(=O)Nc3nc4ccccc4s3)c1)CN(c1ccc(-c3cnn(CC45CC6(C)CC(C)(C4)CC(OCCNCCS(=O)(=O)O)(C6)C5)c3C)c(C(=O)O)n1)CC2` [Example 1.75, 6-[8-(1,3-benzothiazol-2-ylcarbamoyl)-6-[3-(methylamino)propyl]-3,4-dihydroisoquinolin-2 (1H)-yl]-3-{1-[(3,5-dimethyl-7-{2-[(2-sulfoethyl)amino]ethoxy}tricyclo[3.3.1.1^3,7]dec-1-yl)methyl]-5-methyl-1H-pyrazol-4-yl}pyridine-2-carboxylic acid] the same measures were 0.85 nM, 10.80 and 409 nM.
For `Cc1c(-c2ccc(-c3ccc4cncc(C(=O)Nc5nc6ccccc6s5)c4c3)nc2C(=O)O)cnn1CC12CC3(C)CC(C)(C1)CC(OCCNCCS(=O)(=O)O)(C3)C2` [Example 1.78, 6-[4-(1,3-benzothiazol-2-ylcarbamoyl)isoquinolin-6-yl]-3-{1-[(3,5-dimethyl-7-(2-[(2-sulfoethyl)amino]ethoxy}tricyclo[3.3.1.1^3,7]dec-1-yl)methyl]-5-methyl-1H-pyrazol-4-yl}pyridine-2-carboxylic acid] the same measures were under 0.01 nM, over 11.00 and 2.22 nM.
The matching figures for `Cc1c(-c2ccc(N3CCc4cccc(C(=O)Nc5nc6ccccc6s5)c4C3)nc2C(=O)O)cnn1CC12CC3(C)CC(C)(C1)CC(OCCNCC[C@H](O)[C@H](O)CO)(C3)C2` [Example 1.80]: 0.78 nM, 10.28 and 355 nM.
With `Cc1c(-c2ccc(N3CCc4cccc(C(=O)Nc5nc6ccccc6s5)c4C3)nc2C(=O)O)cnn1CC12CC3(C)CC(C)(C1)CC(OCCNC[C@H](O)[C@@H](O)CO)(C3)C2` [Example 1.81, 6-[8-(1,3-benzothiazol-2-ylcarbamoyl)-3,4-dihydroisoquinolin-2 (1H)-yl]-3-(1-{[3,5-dimethyl-7-(2-{[(2S,3S)-2,3,4-trihydroxybutyl]amino}ethoxy)tricyclo[3.3.1.1^3,7]dec-1-yl]methyl}-5-methyl-1H-pyrazol-4-yl}pyridine-2-carboxylic acid], at Bcl-xL, the Ki is 0.37 nM and the negative logarithm of the Ki (pKi) is 10.96. For the same compound, the 50% effective concentration (EC50) in test [1] came out at 252 nM.
For `Cc1c(-c2ccc(N3CCc4cccc(C(=O)Nc5nc6ccccc6s5)c4C3)nc2C(=O)O)cnn1CC12CC3(C)CC(C)(C1)CC(OCCNC[C@H](O)[C@H](O)[C@@H](O)[C@H](O)[C@H](O)CO)(C3)C2` [Example 1.82] the same measures were 0.46 nM, 10.64 and 373 nM.
For `Cc1c(-c2ccc(N3CCc4cccc(C(=O)Nc5nc6ccccc6s5)c4C3)nc2C(=O)O)cnn1CC12CC3(C)CC(C)(C1)CC(OCCNS(=O)(=O)CCCNC(CO)CO)(C3)C2` [Example 1.83] the same measures were 0.66 nM, 10.51 and 178 nM.
